Among the data in ChEMBL document CHEMBL4715700, “Growth inhibitory effect of D-arabinose against the nematode Caenorhabditis elegans: Discovery of a novel bioactive monosaccharide” (Bioorg Med Chem Lett, 2016) are IC50 and Activity values, retold here.

In data set [1] the test system is Caenorhabditis elegans. As to the kind of experiment: Growth inhibition of Caenorhabditis elegans N2 L1 larvae under monoxenic condition assessed as reduction in body size at 42 mM incubated for 72 hrs by microscopic method relative to control. It counts as functional, organism-based. To be noted: for IC50: N2, 72 h.
For data set [2], the system named is Caenorhabditis elegans. As to the kind of experiment: Growth inhibition of Caenorhabditis elegans N2 L1 larvae under monoxenic condition with Escherichia coli food assessed as reduction in body size at 42 mM incubated for 72 hrs by microscopic method relative to control. Format: functional.
For data set [3], the system named is Caenorhabditis elegans. As to the kind of experiment: Growth inhibition of Caenorhabditis elegans N2 L1 larvae under monoxenic condition with Escherichia coli food assessed as reduction in motility at 42 mM incubated for 72 hrs by microscopic method relative to control. Format: functional, organism-based.
For data set [4], the system named is Caenorhabditis elegans. As to the kind of experiment: Growth inhibition of Caenorhabditis elegans N2 assessed as reduction in body size at 10 mM in presence of D-ribose by microscopic method. Format: functional, organism-based.
For data set [5], the system named is Caenorhabditis elegans. As to the kind of experiment: Growth inhibition of Caenorhabditis elegans N2 assessed as reduction in body size at 10 mM in presence of 125 mM D-glucose by microscopic method. Format: functional, organism-based.
Data set [6] in a line: Toxicity in Caenorhabditis elegans N2 under monoxenic condition with Escherichia coli food assessed as mortality at 42 mM incubated for 72 hrs by microscopic method relative to control. Particulars: 42000 µM.
Data set [7] has as its system Caenorhabditis elegans. As to the kind of experiment: Growth inhibition of Caenorhabditis elegans N2 assessed as reduction in body size at 10 mM in presence of D-fructose by microscopic method. It counts as functional, organism-based.
The test system of data set [8] is Caenorhabditis elegans. As to the kind of experiment: Growth inhibition of Caenorhabditis elegans N2 L1 larvae under axenic condition assessed as reduction in body size at 16 mM incubated for 7 days by microscopic method relative to control. It counts as functional. Further details: scale not given: the % may be the effect or the level left. To be noted: time 7 day.

The source made the active and inactive calls. The calls are words filed in the database; no cut-off is given here.

Turning to `OC[C@H]1OC(O)C[C@@H](O)[C@@H]1O` (stereo partly drawn), in the data set with Caenorhabditis elegans [1], the IC50 was 19.5 mM.

Turning to `O=C[C@H](O)[C@@H](O)[C@H](O)CO`, the outcome in the data set on Caenorhabditis elegans [2] was inactive.

In the case of `OC1OC[C@@H](O)[C@H](O)[C@@H]1O` (stereo partly drawn), the result in the data set with Caenorhabditis elegans [2] was inactive.

As to `OC1OC[C@H](O)[C@@H](O)[C@@H]1O` (stereo partly drawn), the result in the data set with Caenorhabditis elegans [2] was inactive.

For the compound `OC1OC[C@H](O)[C@@H](O)[C@H]1O` (stereo partly drawn), the outcome in the data set with Caenorhabditis elegans [2] was inactive.

On to `OC1OC[C@H](O)[C@H](O)[C@H]1O` (stereo partly drawn), for which, in the data set on Caenorhabditis elegans [2], the outcome was inactive.

For the compound `OC[C@@H](O)C(O)[C@H](O)CO`, in the data set on Caenorhabditis elegans [2], the outcome was inactive.

Regarding `OC[C@@H]1OC(O)[C@@H](O)[C@H]1O` (stereo partly drawn), in the data set with Caenorhabditis elegans [2], the outcome was inactive.

With `OC[C@H]1OC(O)[C@H](O)[C@@H]1O` (stereo partly drawn), the outcome in the data set with Caenorhabditis elegans [2] was inactive.

As to `OC1OC[C@@H](O)[C@@H](O)[C@@H]1O` (stereo partly drawn) [D-ARABINOSE], the outcome in the data set on Caenorhabditis elegans [3] and with Caenorhabditis elegans [5] was Active. Also, the result in the data set on Caenorhabditis elegans [4] and in the data set on Caenorhabditis elegans [7] was inactive. The Activity result in data set [6] was “Non-Toxic”; in the data set with Caenorhabditis elegans [1], “Dose-dependent effect”; in the data set with Caenorhabditis elegans [2], 7.8%; with Caenorhabditis elegans [8] it was 15.2%. In addition, the IC50 in the data set with Caenorhabditis elegans [1] is 7.5 mM.
